Reference: patent US20110092505A1, “ORGANIC COMPOUNDS” (priority 2008, published 2011)

What follows are compounds tested on agonist-dependent nuclear export of HDAC5 (assay: HDAC5 nuclear export assay (GFP-HDAC5, Cellomics imaging)). Conditions: Rattus norvegicus, Ventricular myocyte, 2 h, neonatal rat ventricular myocytes, PGF2α stimulation, two hours; read-out: Inhibitory Activity HDAC.
Format: cell-based
Protocol: Compounds are evaluated in the HDAC5 nuclear export assay, a 384-well plate-based assay that enables high throughput screening (HTS) to identify small molecules that block agonist-dependent nuclear export of HDAC5. […] Neonatal rat ventricular myocytes (NRVMs) are infected with GFP-HDAC5 encoding virus and plated on gelatin-coated 384-well dishes. […] Following two hours of stimulation, cells are fixed and GFP-HDAC5 localization quantified using the Cellomics system, which provides a read-out of relative fluorescence intensity in the cytoplasmic versus nuclear compartment.
`NC(=O)c1cc(-c2ccnc(NC3CCCCC3)c2)nc(N2CCN3CCC[C@@H]3C2)c1` [2′-Cyclohexylamino-6-(R)-hexahydro-pyrrolo[1,2-a]pyrazin-2-yl-[2,4′]bipyridinyl-4-carboxylic acid amide] gave an IC50 of 616 nM. In the case of `N#CCNC(=O)c1ccc(-c2ccnc(NC3CCCCC3)c2)nc1N1CCNCC1` [2′-Cyclohexylamino-6-piperazin-1-yl-[2,4′]bipyridinyl-5-carbonxylic acid cyanomethyl-amide], the IC50 is reported as greater than 1000 nM. In the case of `COC(=O)c1ccc(-c2ccnc(NC3CCCCC3)c2)nc1N1CCNCC1` [2′-Cyclohexylamino-6-piperazin-1-yl-[2,4′]bipyridinyl-5-carboxylic acid methyl ester], the IC50 is reported as greater than 1000 nM. For `O=C1NCc2c1cc(-c1ccnc(NC3CCCCC3)c1)nc2N1CCn2cnnc2C1` [6-(2-Cyclohexylamino-pyridin-4yl)-4-(5,6-dihydro-8H-[1,2,4]triazolo[4,3-a]pyrazin-7-yl)-2,3-dihydro-pyrrolo[3,4-c]pyridin-1-one], the IC50 was greater than 1000 nM. `c1cc(-c2cc(-c3nnco3)cc(N3CCNCC3)n2)cc(NC2CCCCC2)n1` [Cyclohexyl-(4-[1,3,4]oxadiazol-2-yl-6-piperazin-1-yl-[2,4′]bipyridinyl-2′-yl)-amine] showed an IC50 of 126 nM. Work on `CS(=O)(=O)c1cc(-c2ccnc(NC3CCCCC3)c2)nc(N2CCNCC2)c1` [Cyclohexyl-(4-methanesulfonyl-6-piperazin-1-yl-[2,4′]bipyridinyl-2′-yl)-amine] yielded an IC50 greater than 1000 nM. `O=[N+]([O-])c1cc(-c2ccnc(NC3CCCCC3)c2)nc(N2CCNCC2)c1` [Cyclohexyl-(4-nitro-6-piperazin-1-yl-[2,4′]bipyridinyl-2′-yl)-amine] showed an IC50 of 235 nM. `Nc1cc(-c2ccnc(NC3CCCCC3)c2)nc(N2CCNCC2)c1` [N*2′*-Cyclohexyl-6-piperazin-1-yl-[2,4′]bipyridinyl-4,2′-diamine] showed an IC50 of 421 nM. `Fc1ccc(Nc2cc(-c3ccnc(NC4CCCCC4)c3)nc(N3CCNCC3)c2)cc1` [N*2′*-Cyclohexyl-N*4*-(4-fluoro-phenyl)-6-piperazin-1-yl-[2,4′]bipyridinyl-4,2′-diamine] showed an IC50 of 423 nM.

Same assay, conditions: Rattus norvegicus, Ventricular myocyte, 2 h, read-out: Inhibitory Activity HDAC
Work on `FC(F)(F)c1cc(-c2ccnc(NC3CCCCC3)c2)nc(N2CCNCC2)c1` [Cyclohexyl-(6-piperazin-1-yl-4-trifluoromethyl-[2,4′]bipyridinyl-2′-yl)amine] yielded an IC50 of 342 nM.
